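Abbreviation: GI50, concentration required for 50% inhibition of growth. TGI: concentration producing complete growth inhibition.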
Legend:
Assay in all cases: inhibition of tumour cell growth, NCI panel, 384-well format
786-0 renal = system: 786-0 renal
A498 renal = system: A498 renal
A549 NSCLC = system: A549 NSCLC
ACHN renal = system: ACHN renal
BT-549 breast = system: BT-549 breast
CAKI-1 renal = system: CAKI-1 renal
CCRF-CEM leukemia = system: CCRF-CEM leukemia
DU-145 prostate = system: DU-145 prostate
EKVX NSCLC = system: EKVX NSCLC
HCC-2998 colon = system: HCC-2998 colon
HCT-116 colon = system: HCT-116 colon
HCT-15 colon = system: HCT-15 colon
HOP-62 NSCLC = system: HOP-62 NSCLC
HOP-92 NSCLC = system: HOP-92 NSCLC
HS 578T breast = system: HS 578T breast
HT29 colon = system: HT29 colon
IGROV1 ovarian = system: IGROV1 ovarian
K-562 leukemia = system: K-562 leukemia
KM12 colon = system: KM12 colon
LOX IMVI melanoma = system: LOX IMVI melanoma
M14 melanoma = system: M14 melanoma
MALME-3M melanoma = system: MALME-3M melanoma
MCF7 breast = system: MCF7 breast
MDA-MB-231 breast = system: MDA-MB-231 breast
MDA-MB-435 melanoma = system: MDA-MB-435 melanoma
MDA-MB-468 breast = system: MDA-MB-468 breast
NCI-H226 lung = system: NCI-H226 lung
NCI-H23 lung = system: NCI-H23 lung
NCI-H322M lung = system: NCI-H322M lung
NCI-H460 NSCLC = system: NCI-H460 NSCLC
NCI-H522 lung = system: NCI-H522 lung
NCI/ADR-RES ovarian = system: NCI/ADR-RES ovarian
OVCAR-3 ovarian = system: OVCAR-3 ovarian
OVCAR-4 ovarian = system: OVCAR-4 ovarian
OVCAR-5 ovarian = system: OVCAR-5 ovarian
OVCAR-8 ovarian = system: OVCAR-8 ovarian
PC-3 prostate = system: PC-3 prostate
RPMI-8226 leukemia = system: RPMI-8226 leukemia
SF-268 CNS = system: SF-268 CNS
SF-295 CNS = system: SF-295 CNS
SF-539 CNS = system: SF-539 CNS
SK-MEL-28 melanoma = system: SK-MEL-28 melanoma
SK-MEL-5 melanoma = system: SK-MEL-5 melanoma
SK-OV-3 ovarian = system: SK-OV-3 ovarian
SN12C renal = system: SN12C renal
SNB-19 CNS = system: SNB-19 CNS
SNB-75 CNS = system: SNB-75 CNS
SW-620 colon = system: SW-620 colon
T-47D breast = system: T-47D breast
TK-10 renal = system: TK-10 renal
U251 glioblastoma = system: U251 glioblastoma
UACC-257 melanoma = system: UACC-257 melanoma
UACC-62 melanoma = system: UACC-62 melanoma
UO-31 renal = system: UO-31 renal

COc1ccc2c(c1)[C@]1(C[C@H]1c1ccc3c(/C=C/c4ccc(CN5C[C@@H](C)O[C@@H](C)C5)cc4)n[nH]c3c1)C(=O)N2
GI50 ([…]-0 renal): 1.63 µM
TGI (786-0 renal): 3.37 µM
GI50 (A498 renal): 2.33 µM
TGI (A498 renal): 6.32 µM
GI50 (A549 NSCLC): 1.19 µM
TGI (A549 NSCLC): 32.2 µM
GI50 (ACHN renal): 2.73 µM
TGI (ACHN renal): 16.8 µM
GI50 (BT-549 breast): 1.68 µM
TGI (BT-549 breast): 3.22 µM
GI50 (CAKI-1 renal): 3.6 µM
TGI (CAKI-1 renal): > 100 µM
GI50 (CCRF-CEM leukemia): < 0.01 µM
GI50 (DU-145 prostate): 3.11 µM
TGI (DU-145 prostate): 12.9 µM
GI50 (EKVX NSCLC): 3.76 µM
TGI (EKVX NSCLC): 46.8 µM
GI50 (HCC-2998 colon): 2.73 µM
TGI (HCC-2998 colon): 5.41 µM
GI50 (HCT-116 colon): 1.56 µM
TGI (HCT-116 colon): 6.47 µM
GI50 (HCT-15 colon): 2.67 µM
TGI (HCT-15 colon): 8.83 µM
GI50 (HOP-62 NSCLC): 1.07 µM
TGI (HOP-62 NSCLC): 3.32 µM
GI50 (HOP-92 NSCLC): 2.19 µM
TGI (HOP-92 NSCLC): 7.29 µM
GI50 (HS 578T breast): 2.23 µM
TGI (HS 578T breast): 4.38 µM
GI50 (HT29 colon): 1.82 µM
TGI (HT29 colon): 3.56 µM
GI50 (IGROV1 ovarian): 4.81 µM
TGI (IGROV1 ovarian): > 100 µM
GI50 (K-562 leukemia): 0.219 µM
TGI (K-562 leukemia): 0.896 µM
GI50 (KM12 colon): 0.0171 µM
TGI (KM12 colon): 1.68 µM
GI50 (LOX IMVI melanoma): 1.65 µM
TGI (LOX IMVI melanoma): 3.64 µM
GI50 (M14 melanoma): 2.42 µM
TGI (M14 melanoma): 11.4 µM
GI50 (MALME-3M melanoma): 1.26 µM
TGI (MALME-3M melanoma): 2.64 µM
GI50 (MCF7 breast): 1.64 µM
TGI (MCF7 breast): 3.31 µM
GI50 (MDA-MB-231 breast): 3.05 µM
TGI (MDA-MB-231 breast): 10.4 µM
GI50 (MDA-MB-435 melanoma): 4.64 µM
TGI (MDA-MB-435 melanoma): 17.4 µM
GI50 (MDA-MB-468 breast): < 0.01 µM
TGI (MDA-MB-468 breast): 0.07 µM
GI50 (NCI-H226 lung): 1.25 µM
TGI (NCI-H226 lung): 14.2 µM
GI50 (NCI-H23 lung): 1.67 µM
TGI (NCI-H23 lung): 4.27 µM
GI50 (NCI-H322M lung): 4.48 µM
TGI (NCI-H322M lung): > 100 µM
GI50 (NCI-H460 NSCLC): < 0.01 µM
TGI (NCI-H460 NSCLC): 2.02 µM
GI50 (NCI-H522 lung): 2.29 µM
TGI (NCI-H522 lung): > 100 µM
GI50 (NCI/ADR-RES ovarian): 1.82 µM
TGI (NCI/ADR-RES ovarian): 7.14 µM
GI50 (OVCAR-3 ovarian): 1.33 µM
TGI (OVCAR-3 ovarian): 2.89 µM
GI50 (OVCAR-4 ovarian): 5.15 µM
TGI (OVCAR-4 ovarian): 28 µM
GI50 (OVCAR-5 ovarian): 4.13 µM
TGI (OVCAR-5 ovarian): 64.5 µM
GI50 (OVCAR-8 ovarian): 2.3 µM
TGI (OVCAR-8 ovarian): 9.75 µM
GI50 (PC-3 prostate): 3.28 µM
TGI (PC-3 prostate): 11 µM
GI50 (RPMI-8226 leukemia): 0.156 µM
TGI (RPMI-8226 leukemia): 3.4 µM
GI50 (SF-268 CNS): < 0.01 µM
TGI (SF-268 CNS): 2.81 µM
GI50 (SF-295 CNS): 2.74 µM
TGI (SF-295 CNS): 15.1 µM
GI50 (SF-539 CNS): 1.3 µM
TGI (SF-539 CNS): 2.64 µM
GI50 (SK-MEL-28 melanoma): 5.22 µM
TGI (SK-MEL-28 melanoma): 20.9 µM
GI50 (SK-MEL-5 melanoma): 1.5 µM
TGI (SK-MEL-5 melanoma): 2.85 µM
GI50 (SK-OV-3 ovarian): 3.29 µM
TGI (SK-OV-3 ovarian): 33.5 µM
GI50 (SN12C renal): 3.57 µM
TGI (SN12C renal): 52.9 µM
GI50 (SNB-19 CNS): 3.34 µM
TGI (SNB-19 CNS): 92.7 µM
GI50 (SNB-75 CNS): 1.73 µM
TGI (SNB-75 CNS): 4.27 µM
GI50 (SW-620 colon): 2.62 µM
TGI (SW-620 colon): 11.9 µM
GI50 (T-47D breast): 2.07 µM
TGI (T-47D breast): 5.25 µM
GI50 (TK-10 renal): 3.66 µM
TGI (TK-10 renal): 27.9 µM
GI50 (U251 glioblastoma): 2.34 µM
TGI (U251 glioblastoma): 6.9 µM
GI50 (UACC-257 melanoma): 2.64 µM
TGI (UACC-257 melanoma): 8.98 µM
GI50 (UACC-62 melanoma): 1.81 µM
TGI (UACC-62 melanoma): 11 µM
GI50 (UO-31 renal): 4.2 µM
TGI (UO-31 renal): 68.1 µM
